# pIC50: −log10 of the molar value.
# What was measured:
# Ephrin type-B receptor 6 = Ephrin type-B receptor 6 (Homo sapiens, UniProt O15197); test: Inhibition of Nano Luc-fused full length C-terminal EPHB6 (unknown origin) expressed in HEK293T cells using NanoGlo as substrate incubated for 2 hrs in presence of tracer by NanoBRET assay; type: cell-based
# Ephrin type-A receptor 7 = Ephrin type-A receptor 7 (Homo sapiens, UniProt Q15375); note: assay method not described here
# [1] = target: Acetyl-CoA carboxylase 1 (Homo sapiens) (UniProt Q13085); note: assay method not described here
# Calumenin (Homo sapiens) = Calumenin (Homo sapiens) (UniProt O43852); note: assay method not described here
# [2] = target: Eukaryotic translation initiation factor 3 subunit G (Homo sapiens) (UniProt O75821); note: assay method not described here
# [3] = target: Exportin-2 (Homo sapiens) (UniProt P55060); note: assay method not described here
# [4] = target: DDB1- and CUL4-associated factor 7 (Homo sapiens) (UniProt P61962); note: assay method not described here
# [5] = target: Probable ATP-dependent RNA helicase DDX17 (Homo sapiens) (UniProt Q92841); note: assay method not described here
# [6] = target: 7-dehydrocholesterol reductase (Homo sapiens) (UniProt Q9UBM7); note: assay method not described here
# [7] = target: Dihydrolipoyllysine-residue acetyltransferase component of pyruvate dehydrogenase complex, mitochondrial (Homo sapiens) (UniProt P10515); note: assay method not described here
# [8] = target: Extended synaptotagmin-1 (Homo sapiens) (UniProt Q9BSJ8); note: assay method not described here
# [9] = target: rRNA 2'-O-methyltransferase fibrillarin (Homo sapiens) (UniProt P22087); note: assay method not described here
# [10] = target: Glucose-6-phosphate 1-dehydrogenase (Homo sapiens) (UniProt P11413); note: assay method not described here
# [11] = target: Growth hormone-inducible transmembrane protein (Homo sapiens) (UniProt Q9H3K2); note: assay method not described here
# [12] = target: HLA class I histocompatibility antigen, A alpha chain (Homo sapiens) (UniProt P04439); note: assay method not described here
# [13] = target: Heterogeneous nuclear ribonucleoprotein A0 (Homo sapiens) (UniProt Q13151); note: assay method not described here
# [14] = target: Heterogeneous nuclear ribonucleoprotein K (Homo sapiens) (UniProt P61978); note: assay method not described here
# [15] = target: Heat shock protein beta-1 (Homo sapiens) (UniProt P04792); note: assay method not described here
# [16] = target: Isoleucine--tRNA ligase, cytoplasmic (Homo sapiens) (UniProt P41252); note: assay method not described here
# [17] = target: MICOS complex subunit MIC60 (Homo sapiens) (UniProt Q16891); note: assay method not described here
# Kinectin (Homo sapiens) = Kinectin (Homo sapiens) (UniProt Q86UP2); note: assay method not described here
# [18] = target: Lipopolysaccharide-responsive and beige-like anchor protein (Homo sapiens) (UniProt P50851); note: assay method not described here
# [19] = target: Dual specificity mitogen-activated protein kinase kinase 5 (Homo sapiens) (UniProt Q13163); note: assay method not described here
# [20] = target: Mitogen-activated protein kinase kinase kinase 3 (Homo sapiens) (UniProt Q99759); note: assay method not described here
# [21] = target: Mitogen-activated protein kinase kinase kinase kinase 2 (Homo sapiens) (UniProt Q12851); note: assay method not described here
# Malectin (Homo sapiens) = Malectin (Homo sapiens) (UniProt Q14165); note: assay method not described here
# [22] = target: Protein phosphatase 1G (Homo sapiens) (UniProt O15355); note: assay method not described here
# [23] = target: Proteasome Macropain subunit (Homo sapiens) (UniProt P49721); note: assay method not described here
# [24] = target: 26S proteasome regulatory subunit 8 (Homo sapiens) (UniProt P62195); note: assay method not described here
# [25] = target: Ras association domain-containing protein 2 (Homo sapiens) (UniProt P50749); note: assay method not described here
# [26] = target: Large ribosomal subunit protein eL27 (Homo sapiens) (UniProt P61353); note: assay method not described here
# [27] = target: Large ribosomal subunit protein P1 (Homo sapiens) (UniProt P05386); note: assay method not described here
# [28] = target: Small ribosomal subunit protein eS21 (Homo sapiens) (UniProt P63220); note: assay method not described here
# [29] = target: Signal peptidase complex catalytic subunit SEC11A (Homo sapiens) (UniProt P67812); note: assay method not described here
# [30] = target: Protein transport protein Sec16A (Homo sapiens) (UniProt O15027); note: assay method not described here
# [31] = target: Serine/threonine-protein kinase SIK2 (Homo sapiens) (UniProt Q9H0K1); note: assay method not described here
# [32] = target: Equilibrative nucleobase transporter 1 (Homo sapiens) (UniProt Q8NBI5); note: assay method not described here
# [33] = target: Synaptosomal-associated protein 23 (Homo sapiens) (UniProt O00161); note: assay method not described here
# [34] = target: TRAF family member-associated NF-kappa-B activator (Homo sapiens) (UniProt Q92844); note: assay method not described here
# [35] = target: Transportin-3 (Homo sapiens) (UniProt Q9Y5L0); note: assay method not described here
# [36] = target: ATP synthase F(0) complex subunit k, mitochondrial (Homo sapiens) (UniProt Q96IX5); note: assay method not described here
# [37] = target: Neurosecretory protein VGF (Homo sapiens) (UniProt O15240); note: assay method not described here
# [38] = target: WD repeat-containing protein 1 (Homo sapiens) (UniProt O75083); note: assay method not described here
# [39] = target: Tyrosine--tRNA ligase, cytoplasmic (Homo sapiens) (UniProt P54577); note: assay method not described here
# [40] = target: 14-3-3 protein eta (Homo sapiens) (UniProt Q04917); note: assay method not described here
# Chain of Ephrin type-A receptor 7 (Q15375 28-998 limits assumed): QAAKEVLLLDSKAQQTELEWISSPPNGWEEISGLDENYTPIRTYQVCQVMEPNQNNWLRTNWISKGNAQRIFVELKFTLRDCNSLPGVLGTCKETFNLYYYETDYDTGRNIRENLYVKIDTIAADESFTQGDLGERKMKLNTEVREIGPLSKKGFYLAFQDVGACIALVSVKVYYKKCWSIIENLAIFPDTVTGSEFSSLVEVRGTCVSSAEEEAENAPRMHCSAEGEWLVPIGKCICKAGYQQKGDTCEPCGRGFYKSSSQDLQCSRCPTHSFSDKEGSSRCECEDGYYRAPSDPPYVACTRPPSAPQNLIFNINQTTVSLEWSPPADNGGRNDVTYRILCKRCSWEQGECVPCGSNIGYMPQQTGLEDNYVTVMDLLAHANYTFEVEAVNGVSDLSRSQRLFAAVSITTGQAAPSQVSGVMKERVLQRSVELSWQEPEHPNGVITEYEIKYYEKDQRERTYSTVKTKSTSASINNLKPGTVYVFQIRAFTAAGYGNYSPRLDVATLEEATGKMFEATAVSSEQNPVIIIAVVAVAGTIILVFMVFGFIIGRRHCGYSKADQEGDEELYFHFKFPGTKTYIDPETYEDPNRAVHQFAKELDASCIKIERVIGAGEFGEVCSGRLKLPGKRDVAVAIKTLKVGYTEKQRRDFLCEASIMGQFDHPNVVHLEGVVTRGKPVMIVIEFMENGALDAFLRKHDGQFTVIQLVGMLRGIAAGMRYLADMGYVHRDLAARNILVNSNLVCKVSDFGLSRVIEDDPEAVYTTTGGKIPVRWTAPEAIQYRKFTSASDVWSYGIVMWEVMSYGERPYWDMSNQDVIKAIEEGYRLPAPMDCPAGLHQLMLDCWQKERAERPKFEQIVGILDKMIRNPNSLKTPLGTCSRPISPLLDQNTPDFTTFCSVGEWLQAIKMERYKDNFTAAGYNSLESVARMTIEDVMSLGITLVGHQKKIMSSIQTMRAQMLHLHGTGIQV
# Chain of WD repeat-containing protein 1 (Homo sapiens) (O75083 whole entry): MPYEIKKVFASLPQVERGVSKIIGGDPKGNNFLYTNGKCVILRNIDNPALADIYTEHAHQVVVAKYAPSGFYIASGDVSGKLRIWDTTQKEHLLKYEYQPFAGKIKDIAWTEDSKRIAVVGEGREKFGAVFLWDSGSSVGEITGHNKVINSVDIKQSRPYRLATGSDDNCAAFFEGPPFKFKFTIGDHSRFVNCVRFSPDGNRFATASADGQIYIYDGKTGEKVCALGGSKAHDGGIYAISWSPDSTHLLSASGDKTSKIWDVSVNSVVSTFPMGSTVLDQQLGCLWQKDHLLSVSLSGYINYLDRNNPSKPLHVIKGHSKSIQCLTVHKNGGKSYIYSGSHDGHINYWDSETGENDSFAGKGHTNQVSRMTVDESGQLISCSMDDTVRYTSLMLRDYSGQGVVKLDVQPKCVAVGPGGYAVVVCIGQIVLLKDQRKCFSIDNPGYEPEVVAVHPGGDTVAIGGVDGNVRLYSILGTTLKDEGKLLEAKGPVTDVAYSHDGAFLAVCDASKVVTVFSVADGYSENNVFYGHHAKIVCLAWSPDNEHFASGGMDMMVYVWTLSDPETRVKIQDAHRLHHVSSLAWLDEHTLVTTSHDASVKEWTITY
# Chain of Heterogeneous nuclear ribonucleoprotein A0 (Homo sapiens) (Q13151 whole entry): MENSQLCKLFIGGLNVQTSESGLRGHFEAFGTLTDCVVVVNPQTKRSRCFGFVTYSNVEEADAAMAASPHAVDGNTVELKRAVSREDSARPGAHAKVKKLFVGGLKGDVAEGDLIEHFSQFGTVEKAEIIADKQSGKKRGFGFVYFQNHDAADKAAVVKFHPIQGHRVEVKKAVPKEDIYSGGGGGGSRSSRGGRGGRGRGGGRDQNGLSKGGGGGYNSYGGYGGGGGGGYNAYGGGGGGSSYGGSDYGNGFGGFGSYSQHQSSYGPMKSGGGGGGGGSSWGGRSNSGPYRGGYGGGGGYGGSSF
# Chain of Lipopolysaccharide-responsive and beige-like anchor protein (Homo sapiens) (P50851 whole entry): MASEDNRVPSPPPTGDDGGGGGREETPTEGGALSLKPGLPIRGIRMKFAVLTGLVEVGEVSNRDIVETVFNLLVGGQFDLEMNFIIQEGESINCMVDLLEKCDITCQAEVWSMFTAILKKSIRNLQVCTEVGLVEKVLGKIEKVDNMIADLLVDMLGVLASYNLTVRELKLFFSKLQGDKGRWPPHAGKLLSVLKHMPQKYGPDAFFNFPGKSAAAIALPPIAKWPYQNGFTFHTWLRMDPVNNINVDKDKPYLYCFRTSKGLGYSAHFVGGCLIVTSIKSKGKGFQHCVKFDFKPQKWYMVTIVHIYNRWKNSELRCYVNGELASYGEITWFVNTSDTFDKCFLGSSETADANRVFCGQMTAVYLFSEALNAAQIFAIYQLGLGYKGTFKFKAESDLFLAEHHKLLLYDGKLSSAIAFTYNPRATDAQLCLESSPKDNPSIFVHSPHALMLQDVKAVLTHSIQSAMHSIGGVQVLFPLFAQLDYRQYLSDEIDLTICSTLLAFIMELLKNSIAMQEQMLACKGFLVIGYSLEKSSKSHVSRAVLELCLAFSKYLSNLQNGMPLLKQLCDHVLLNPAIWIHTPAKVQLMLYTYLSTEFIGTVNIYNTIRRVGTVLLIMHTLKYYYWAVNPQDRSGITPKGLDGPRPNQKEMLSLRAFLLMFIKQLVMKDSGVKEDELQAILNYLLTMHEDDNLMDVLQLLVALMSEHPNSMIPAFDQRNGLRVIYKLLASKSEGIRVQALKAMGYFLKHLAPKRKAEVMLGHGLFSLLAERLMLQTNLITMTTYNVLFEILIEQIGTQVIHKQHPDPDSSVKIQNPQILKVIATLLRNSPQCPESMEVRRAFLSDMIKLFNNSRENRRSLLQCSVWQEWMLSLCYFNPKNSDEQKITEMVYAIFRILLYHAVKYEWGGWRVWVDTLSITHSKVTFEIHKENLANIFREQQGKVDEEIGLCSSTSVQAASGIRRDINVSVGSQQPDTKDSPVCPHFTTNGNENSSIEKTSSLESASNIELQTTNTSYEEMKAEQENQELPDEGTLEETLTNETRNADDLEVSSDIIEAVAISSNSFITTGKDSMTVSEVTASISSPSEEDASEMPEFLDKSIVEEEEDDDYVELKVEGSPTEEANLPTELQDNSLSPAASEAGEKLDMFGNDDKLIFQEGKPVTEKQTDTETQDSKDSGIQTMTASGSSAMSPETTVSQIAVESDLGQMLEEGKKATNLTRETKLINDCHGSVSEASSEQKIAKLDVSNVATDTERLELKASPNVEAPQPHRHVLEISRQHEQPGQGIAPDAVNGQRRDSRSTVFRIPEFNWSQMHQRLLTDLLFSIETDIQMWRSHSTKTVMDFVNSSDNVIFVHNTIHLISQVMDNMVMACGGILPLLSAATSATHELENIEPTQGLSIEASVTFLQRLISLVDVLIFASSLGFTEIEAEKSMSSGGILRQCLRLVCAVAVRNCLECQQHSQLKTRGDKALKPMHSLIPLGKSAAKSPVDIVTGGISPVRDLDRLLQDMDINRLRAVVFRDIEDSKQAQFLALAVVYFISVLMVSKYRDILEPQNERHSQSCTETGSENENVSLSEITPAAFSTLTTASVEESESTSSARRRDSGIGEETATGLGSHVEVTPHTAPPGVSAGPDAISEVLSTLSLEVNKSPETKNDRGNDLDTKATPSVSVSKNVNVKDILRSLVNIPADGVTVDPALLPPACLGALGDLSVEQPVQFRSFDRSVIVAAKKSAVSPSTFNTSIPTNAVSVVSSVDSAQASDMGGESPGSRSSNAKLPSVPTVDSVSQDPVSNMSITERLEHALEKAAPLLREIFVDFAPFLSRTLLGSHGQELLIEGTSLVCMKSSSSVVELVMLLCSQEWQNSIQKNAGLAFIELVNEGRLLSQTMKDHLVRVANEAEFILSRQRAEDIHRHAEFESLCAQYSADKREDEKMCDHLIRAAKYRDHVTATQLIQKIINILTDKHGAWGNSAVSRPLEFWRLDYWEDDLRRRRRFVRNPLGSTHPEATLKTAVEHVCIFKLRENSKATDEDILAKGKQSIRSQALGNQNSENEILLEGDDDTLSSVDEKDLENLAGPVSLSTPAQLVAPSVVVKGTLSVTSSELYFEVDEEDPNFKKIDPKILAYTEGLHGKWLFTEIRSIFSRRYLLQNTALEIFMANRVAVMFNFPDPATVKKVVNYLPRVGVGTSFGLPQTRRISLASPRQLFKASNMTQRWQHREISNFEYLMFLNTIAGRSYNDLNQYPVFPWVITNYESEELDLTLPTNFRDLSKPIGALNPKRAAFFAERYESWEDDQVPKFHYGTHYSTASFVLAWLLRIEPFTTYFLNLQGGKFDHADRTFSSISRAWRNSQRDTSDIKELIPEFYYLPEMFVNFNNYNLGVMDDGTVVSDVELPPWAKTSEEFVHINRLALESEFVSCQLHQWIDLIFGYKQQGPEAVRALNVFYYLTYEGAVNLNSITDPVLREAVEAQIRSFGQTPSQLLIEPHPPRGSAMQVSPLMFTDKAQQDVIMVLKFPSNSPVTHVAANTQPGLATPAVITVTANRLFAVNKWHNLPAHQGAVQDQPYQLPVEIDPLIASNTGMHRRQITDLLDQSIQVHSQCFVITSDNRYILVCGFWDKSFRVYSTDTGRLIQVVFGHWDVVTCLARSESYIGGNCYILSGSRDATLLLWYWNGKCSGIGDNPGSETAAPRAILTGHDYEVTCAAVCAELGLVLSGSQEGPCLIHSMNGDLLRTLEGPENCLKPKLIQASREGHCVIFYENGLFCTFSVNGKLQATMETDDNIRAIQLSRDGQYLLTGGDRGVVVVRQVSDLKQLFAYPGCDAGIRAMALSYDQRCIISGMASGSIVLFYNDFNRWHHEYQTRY
# Chain of DDB1- and CUL4-associated factor 7 (Homo sapiens) (P61962 whole entry): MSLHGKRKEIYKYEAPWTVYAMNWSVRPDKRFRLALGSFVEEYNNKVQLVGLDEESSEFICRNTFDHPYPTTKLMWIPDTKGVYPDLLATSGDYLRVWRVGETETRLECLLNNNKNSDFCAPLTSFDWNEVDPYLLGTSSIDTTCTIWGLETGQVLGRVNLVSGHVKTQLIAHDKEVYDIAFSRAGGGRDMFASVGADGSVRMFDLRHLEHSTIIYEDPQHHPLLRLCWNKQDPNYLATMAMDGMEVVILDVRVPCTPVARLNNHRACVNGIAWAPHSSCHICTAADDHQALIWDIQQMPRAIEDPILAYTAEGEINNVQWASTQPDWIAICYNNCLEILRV
structure (smiles),measurement,setting,value
Cc1ccc(C(=O)Nc2cccc(C(F)(F)F)c2)cc1Nc1nc(-c2cccnc2)nc2c1cnn2C,pIC50,Ephrin type-B receptor 6,5.35
same,ED50,Ephrin type-A receptor 7,15.8 µM
same,ED50,[1],16.4 µM
same,ED50,Calumenin (Homo sapiens),1.72 µM
same,ED50,[2],0.00468 µM
same,ED50,[3],1.94 µM
same,ED50,[4],1.12 µM
same,ED50,[5],0.126 µM
same,ED50,[6],0.0142 µM
same,ED50,[7],2.58 µM
same,ED50,[8],0.00937 µM
same,ED50,[9],5.44 µM
same,ED50,[10],81.4 µM
same,ED50,[11],0.00891 µM
same,ED50,[12],19000 µM
same,ED50,[13],4.39 µM
same,ED50,[14],0.0564 µM
same,ED50,[15],11 µM
same,ED50,[16],0.0944 µM
same,ED50,[17],5.75 µM
same,ED50,Kinectin (Homo sapiens),4.85 µM
same,ED50,[18],982 µM
same,ED50,[19],5.94 µM
same,ED50,[20],12.1 µM
same,ED50,[21],0.0201 µM
same,ED50,Malectin (Homo sapiens),95.1 µM
same,ED50,[22],0.442 µM
same,ED50,[23],3.31 µM
same,ED50,[24],7.4 µM
same,ED50,[25],0.0164 µM
same,ED50,[26],5.26 µM
same,ED50,[27],0.0125 µM
same,ED50,[28],60 µM
same,ED50,[29],430 µM
same,ED50,[30],0.00675 µM
same,ED50,[31],2.14 µM
same,ED50,[32],12.9 µM
same,ED50,[33],11.2 µM
same,ED50,[34],13.4 µM
same,ED50,[35],19 µM
same,ED50,[36],128 µM
same,ED50,[37],2.22 µM
same,ED50,[38],2.69 µM
same,ED50,[39],0.157 µM
same,ED50,[40],0.0217 µM
Cc1ccc(C(=O)Nc2cccc(C(F)(F)F)c2)cc1Nc1nc(-c2cccnc2)nc2nn(C)cc12,pIC50,Ephrin type-B receptor 6,< 4.30
same,ED50,Ephrin type-A receptor 7,1.49 µM
same,ED50,[1],0.0486 µM
same,ED50,Calumenin (Homo sapiens),3.41 µM
same,ED50,[2],0.0104 µM
same,ED50,[3],0.487 µM
same,ED50,[4],0.184 µM
same,ED50,[5],16.2 µM
same,ED50,[6],0.0055 µM
same,ED50,[7],0.0551 µM
same,ED50,[8],6850 µM
same,ED50,[9],0.0214 µM
same,ED50,[10],0.107 µM
same,ED50,[11],0.0192 µM
same,ED50,[12],0.0554 µM
same,ED50,[13],0.0174 µM
same,ED50,[14],0.184 µM
same,ED50,[15],0.0109 µM
same,ED50,[16],4.57 µM
same,ED50,[17],0.00743 µM
same,ED50,Kinectin (Homo sapiens),0.466 µM
same,ED50,[18],0.167 µM
same,ED50,[19],0.00101 µM
same,ED50,[20],0.0358 µM
same,ED50,[21],0.0236 µM
same,ED50,Malectin (Homo sapiens),7.05 µM
same,ED50,[22],35 µM
same,ED50,[23],0.0536 µM
same,ED50,[24],0.443 µM
same,ED50,[25],3.43 µM
same,ED50,[26],0.048 µM
same,ED50,[27],16600 µM
same,ED50,[28],0.00683 µM
same,ED50,[29],6.74 µM
same,ED50,[30],0.0052 µM
same,ED50,[31],8.18 µM
same,ED50,[32],33.9 µM
same,ED50,[33],0.416 µM
same,ED50,[34],0.0508 µM
same,ED50,[35],0.669 µM
same,ED50,[36],0.0812 µM
same,ED50,[37],2.66 µM
same,ED50,[38],0.0817 µM
same,ED50,[39],0.0572 µM
same,ED50,[40],0.103 µM

# Reference: ChEMBL document CHEMBL5649169 (ChemMedChem, 2018)
